± gives the expanded uncertainty stated by the source.
Tests used:
[1] = refractive index (Na D-line) (dimensionless); xn = mol fraction of the nth substance listed; settings: 101 kPa, Liquid, Standard Abbe refractometry
[2] = xn = mol fraction of the nth substance listed; settings: 101 kPa, Liquid; for speed of sound: Pulse-echo method

C1CCCCCCC1 [cyclooctane] + Cc1ccc(C)cc1
Settings | mass density, [2] [kg/m3] | refractive index, [1] | speed of sound, [2] [m/s]
298.15 K, x1 = 0.0534 | 854.3 ± 0.5 | 1.49055 ± 0.0007 | 1312 ± 2
298.15 K, x1 = 0.1004 | 852.6 ± 0.5 | 1.4883 ± 0.0007 | 1314 ± 2
298.15 K, x1 = 0.2025 | 848.8 ± 0.5 | 1.48358 ± 0.0007 | 1319 ± 2
298.15 K, x1 = 0.303 | 845.4 ± 0.5 | 1.4792 ± 0.0007 | 1325 ± 2
298.15 K, x1 = 0.402 | 842.4 ± 0.5 | 1.47506 ± 0.0007 | 1332 ± 2
298.15 K, x1 = 0.4986 | 839.6 ± 0.5 | 1.47129 ± 0.0007 | 1339 ± 2
298.15 K, x1 = 0.599 | 837.1 ± 0.5 | 1.46764 ± 0.0007 | 1348 ± 2
298.15 K, x1 = 0.6981 | 835 ± 0.5 | 1.46424 ± 0.0007 | 1357 ± 2
298.15 K, x1 = 0.7968 | 833.3 ± 0.5 | 1.46119 ± 0.0007 | 1367 ± 2
298.15 K, x1 = 0.8926 | 832 ± 0.5 | 1.4585 ± 0.0007 | 1377 ± 2
298.15 K, x1 = 0.9504 | 831.5 ± 0.5 | 1.45707 ± 0.0007 | 1384 ± 2
298.15 K, x1 = 1 | 831.5 ± 0.5 | 1.45598 ± 0.00061 | 1391 ± 2
313.15 K, x1 = 0.0485 | 841.6 ± 0.5 | 1.48247 ± 0.0007 | 1250 ± 2
313.15 K, x1 = 0.0874 | 840.2 ± 0.5 | 1.48077 ± 0.0007 | 1252 ± 2
313.15 K, x1 = 0.1848 | 836.7 ± 0.5 | 1.47651 ± 0.0007 | 1256 ± 2
313.15 K, x1 = 0.2948 | 833.2 ± 0.5 | 1.472 ± 0.0007 | 1262 ± 2
313.15 K, x1 = 0.3853 | 830.4 ± 0.5 | 1.46825 ± 0.0007 | 1268 ± 2
313.15 K, x1 = 0.4829 | 827.7 ± 0.5 | 1.46454 ± 0.0007 | 1274 ± 2
313.15 K, x1 = 0.5809 | 825.3 ± 0.5 | 1.46094 ± 0.0007 | 1282 ± 2
313.15 K, x1 = 0.6837 | 823.1 ± 0.5 | 1.45755 ± 0.0007 | 1291 ± 2
313.15 K, x1 = 0.7877 | 821.3 ± 0.5 | 1.45432 ± 0.0007 | 1301 ± 2
313.15 K, x1 = 0.8888 | 820 ± 0.5 | 1.45148 ± 0.0007 | 1312 ± 2
313.15 K, x1 = 0.9413 | 819.5 ± 0.5 | 1.4501 ± 0.0007 | 1318 ± 2
313.15 K, x1 = 1 | 819.2 ± 0.5 | 1.44877 ± 0.00061 | 1325 ± 2

Source: the NIST ThermoML archive (doi:10.1021/je901020a)
